{"source": "patent US7977366B2", "about": "“Treating an inflammatory disorder or inhibiting respiratory burst in adherent neutrophils with chemical inhibitors of neutrophil activation” (Cornell Research Foundation, Inc., priority 2003, dated 2011)", "test_system": "human neutrophils", "experiment": "TNF-triggered H2O2 release (respiratory burst) by adherent human neutrophils", "type": "cell-based", "protocol": "Contaminating erythrocytes were lysed by hypotonic shock for 45 seconds with 0.2% saline.\nBriefly, 15,000 compounds were screened to identify specific inhibitors of TNF-triggered H2O2 release in human neutrophils. H2O2 release was measured as above except a few modifications to adapt to high throughput screening. […] Percent inhibition by each compound was calculated using the formula: […]\nBriefly, 96-well flat-bottomed plates (Primaria, Falcon) were coated with 50 μl/well of FBS in 5% CO2 at 37° C. for at least 1 h and washed three times with 0.9% saline. Neutrophils (1.5×10^4) were added to triplicate wells containing 100 μl of reaction mixture (2.4 nm scopoletin, 0.5 μg horseradish peroxidase (HRP), and 1 mM NaN3) and stimulated with either buffer control, TNF (PreproTech, London, UK) or phorbol myristate acetate (PMA), each at 100 ng/ml. […] The supernatant from the H2O2 release assay with 1.5×10^4 neutrophils was used to measure degranulation using lactoferrin (LF) or myeloperoxidase (MPO) ELISA kit (Oxis International, Inc., Portland, Oreg.). Spontaneous cell death from the same supernatant was measured using Cytotoxicity Detection Kit (Roche Molecular Biochemicals, Nutley, N.J.). The total cell content of LF, MPO, and lactate dehydrogenase (LDH) was determined after lysing cells with 1% Triton X100. LDH is a cytosolic enzyme whose release indicates cell lysis, such that high release of LF or MPO in the face of low release of LDH is taken as a measure of degranulation.", "data": [{"smiles": "CC1=NN(c2ccccc2)C(=O)/C1=C\\Nc1cccc2ccc(C)nc12", "note": "[Comp II′]", "values": [{"measurement": "IC50", "setting": "Homo sapiens, Neutrophil, 1.5 h, TNF 100 ng/ml, H2O2 release at 90 min, read-out: IC50, TNF triggered H2O2 release", "result": 22, "unit": "nM"}, {"measurement": "Concentration that consistently yielded over 95% inhibition on TNF triggered RB", "setting": "empirically decided for each compound", "result": 1, "unit": "µM"}]}]}
